Values of other authors in PubChem BioAssay AID1259409 (Chemical Carcinogenesis Research Information System (CCRIS), 2018).

Test system: rodent chemically induced tumor inhibition, incidence and multiplicity
Experiment: CCRIS tumor inhibitor studies
Settings: Dose [Inhibitor]: 0

| SMILES | tumour outcome (control, treated, inhibition, significance) (Carcinogen: N-METHYL-N'-NITRO-N-NITROSOGUANIDINE, 70-25-7, 30 MG/KG 1/2 D BEGINNING 1 WK POST CARCINOGEN TREATMENT AND CONTINUING FOR DURATION OF STUDY (STUDY DURATION: 52 WK), Route [Inhibitor]: SUBCUTANEOUS, Species: RAT, Strain/Sex: WISTAR/MALE, Target Tissue: Type of Lesion: STOMACH: ADENOCARCINOMA, Dose [Carcinogen]: 50 UG/ML IN DRINKING WATER FOR 25 WK, Promoter: NONE USED) | tumour outcome (control, treated, inhibition, significance) (Carcinogen: N-METHYL-N'-NITRO-N-NITROSOGUANIDINE, 70-25-7, 30 MG/KG IN 2 ML/KG 0.9% NACL 1/2 D FOR STUDY DURATION BEGINNING POST CARCINOGEN TREATMENT (STUDY DURATION: 52 WK), Route [Inhibitor]: SUBCUTANEOUS, Species: RAT, Strain/Sex: WISTAR/MALE, Target Tissue: Type of Lesion: GLANDULAR STOMACH: ADENOCARCINOMA, Dose [Carcinogen]: 50 UG/ML DRINKING WATER FOR 25 WK) | tumour outcome (control, treated, inhibition, significance) (Carcinogen: N-ETHYL-N'-NITRO-N-NITROSOGUANIDINE, 4245-77-6, 20 MG/KG/D IN DIET FOR 16 WK (STUDY DURATION: 16 WK), Route [Inhibitor]: ORAL, Species: MOUSE, Strain/Sex: C57BL/MALE, Target Tissue: Type of Lesion: DUODENUM: TUMOR, Dose [Carcinogen]: 100 MG/L IN DRINKING WATER FOR 4 WK, Promoter: NONE USED) | tumour outcome (control, treated, inhibition, significance) (Carcinogen: N-ETHYL-N'-NITRO-N-NITROSOGUANIDINE, 4245-77-6, 20 MG/KG/D IN DIET FOR DURATION OF STUDY (STUDY DURATION: 16 WK), Route [Inhibitor]: ORAL, Species: MOUSE, Strain/Sex: C57BL/MALE, Target Tissue: Type of Lesion: DUODENUM: TUMOR, Dose [Carcinogen]: 100 MG/L IN DRINKING WATER FOR 4 WK, Promoter: NONE) | tumour outcome (control, treated, inhibition, significance) (Carcinogen: N-ETHYL-N'-NITRO-N-NITROSOGUANIDINE, 4245-77-6, 50 MG/KG/D IN DIET FOR 16 WK (STUDY DURATION: 16 WK), Route [Inhibitor]: ORAL, Species: MOUSE, Strain/Sex: C57BL/MALE, Target Tissue: Type of Lesion: DUODENUM: TUMOR, Dose [Carcinogen]: 100 MG/L IN DRINKING WATER FOR 4 WK, Promoter: NONE USED) | tumour outcome (control, treated, inhibition, significance) (Carcinogen: N-ETHYL-N'-NITRO-N-NITROSOGUANIDINE, 4245-77-6, 50 MG/KG/D IN DIET FOR DURATION OF STUDY (STUDY DURATION: 16 WK), Route [Inhibitor]: ORAL, Species: MOUSE, Strain/Sex: C57BL/MALE, Target Tissue: Type of Lesion: DUODENUM: TUMOR, Dose [Carcinogen]: 100 MG/L IN DRINKING WATER FOR 4 WK, Promoter: NONE) | tumour outcome (control, treated, inhibition, significance) (Carcinogen: N-METHYL-N'-NITRO-N-NITROSOGUANIDINE, 70-25-7, 20 MG/KG/D IN DIET FOR 34 WK BEGINNING 10 WK POST FIRST CARCINOGEN DOSE (STUDY DURATION: 44 WK), Route [Inhibitor]: ORAL, Species: RAT, Strain/Sex: WISTAR/MALE, Target Tissue: Type of Lesion: STOMACH: TUMOR, Dose [Carcinogen]: 80 MG/L IN DRINKING WATER FOR 28 WK, Promoter: NONE) |
| --- | --- | --- | --- | --- | --- | --- | --- |
| CCN1CCCC1CNC(=O)c1cc(S(N)(=O)=O)ccc1OC (configuration not stated) | 13/18 (72%), 11/18 (61%), 15%, not significant | 13/18 (72%), 11/18 (61%), 15%, not significant | – | – | – | – | – |
| O=C(NC(Cc1cc(=O)[nH]c2ccccc12)C(=O)O)c1ccc(Cl)cc1 (configuration not stated) | – | – | 22/33 (67%), 18/33 (55%), 18%, not significant | 22/33 (67%), 18/31 (58%), 13%, not significant | 22/33 (67%), 14/33 (42%), 37%, p<0.05 | 22/33 (67%), 14/31 (45%), 33%, not significant | 10/13 (77%), 8/13 (62%), 19%, not significant |
